Results taken from BindingDB's records for doi:10.1016/j.ejmech.2017.01.044 (Universidade De Lisboa, 2017).

Test: Inhibition of human ABCB1 expressed in mouse L5178Y cells assessed as reduction in cell growth after 24 hrs by MTT assay

Going from `CC[C@@H]1CN(C)[C@H]2Cc3c([nH]c4ccccc34)/C(=N/Nc3ccccc3)C[C@H]1[C@@H]2C(=O)OC` to `CC[C@H]1CN(C)[C@H]2Cc3c([nH]c4ccccc34)/C(=N/Nc3ccccc3)C[C@H]1[C@@H]2C(=O)OC`, the IC50 rises from 17 µM to 52.7 µM (3.1-fold). The first is the more potent here.

First: CC[C@H]1CN(C)[C@H]2Cc3c([nH]c4ccccc34)/C(=N/Nc3cnccn3)C[C@H]1[C@@H]2C(=O)OC
Second: CC[C@@H]1CN(C)[C@H]2Cc3c([nH]c4ccccc34)/C(=N/Nc3cnccn3)C[C@H]1[C@@H]2C(=O)OC
The IC50 of the first is lower: 84.8 µM for the first, > 100 µM for the second.

`CC[C@H]1CN(C)[C@H]2Cc3c([nH]c4ccccc34)C(=O)C[C@H]1[C@@H]2C(=O)OC` and `CC[C@@H]1CN(C)[C@H]2Cc3c([nH]c4ccccc34)C(=O)C[C@H]1[C@@H]2C(=O)OC` cannot be ordered by IC50: > 100 µM for the first, > 100 µM for the second.

`CC[C@@H]1CN(C)[C@H]2Cc3c([nH]c4ccccc34)/C(=N/NC(N)=O)C[C@H]1[C@@H]2C(=O)OC` and `CC[C@H]1CN(C)[C@H]2Cc3c([nH]c4ccccc34)/C(=N/NC(N)=O)C[C@H]1[C@@H]2C(=O)OC` cannot be ordered by IC50: > 100 µM for the first, > 100 µM for the second.

`CC[C@H]1CN(C)[C@H]2Cc3c([nH]c4ccccc34)/C(=N/NC(=O)OCc3ccc(OC)cc3)C[C@H]1[C@@H]2C(=O)OC` and `CC[C@H]1CN(C)[C@H]2Cc3c([nH]c4ccccc34)/C(=N/NC(=S)NCc3cccnc3)C[C@H]1[C@@H]2C(=O)OC` are within 1.5-fold of each other in IC50: 52.3 µM for the first, 45.2 µM for the second.

Going from `CC[C@H]1CN(C)[C@H]2Cc3c([nH]c4ccccc34)C(=S)C[C@H]1[C@@H]2C(=O)OC` to `CC[C@H]1CN(C)[C@H]2Cc3c([nH]c4ccccc34)/C(=N/O)C[C@H]1[C@@H]2C(=O)OC`, the IC50 falls from 77.9 µM to 16.7 µM (4.7-fold). The second is the more potent here.

Going from `CC[C@H]1CN(C)[C@H]2Cc3c([nH]c4ccccc34)[C@@H](O)C[C@H]1[C@@H]2C(=O)OC` to `CC[C@@H]1CN(C)[C@H]2Cc3c([nH]c4ccccc34)[C@@H](O)C[C@H]1[C@@H]2C(=O)OC`, the IC50 falls from > 100 µM to 83.9 µM.

`C/C=C/C(=O)O[C@H]1C[C@@H]2[C@@H](CC)CN(C)[C@@H](Cc3c1[nH]c1ccccc31)[C@H]2C(=O)OC` and `CC[C@@H]1CN(C)[C@H]2Cc3c([nH]c4ccccc34)[C@@H](OC(=O)C34CC5CC(CC(C5)C3)C4)C[C@H]1[C@@H]2C(=O)OC` cannot be ordered by IC50: > 100 µM for the first, > 100 µM for the second.

First: CC[C@H]1CN(C)[C@H]2Cc3c(n(C)c4ccccc34)C(=O)C[C@H]1[C@@H]2C(=O)OC
Second: CC[C@H]1CN(C)[C@H]2Cc3c(n(CCN(CC)CC)c4ccccc34)C(=O)C[C@H]1[C@@H]2C(=O)OC
The IC50 of the first is lower: 89.2 µM for the first, > 100 µM for the second.

First: CC[C@H]1CN(C)[C@H]2Cc3c(n(Cc4ccccc4)c4ccccc34)C(=O)C[C@H]1[C@@H]2C(=O)OC
Second: CC[C@H]1CN(C)[C@H]2Cc3c(n(C(=O)c4cccc(C)c4)c4ccccc34)C(=O)C[C@H]1[C@@H]2C(=O)OC
The IC50 of the first is lower: 38.1 µM for the first, > 100 µM for the second. The first is the more potent here.

`CC[C@H]1CN(C)[C@H]2Cc3c([nH]c4ccccc34)/C(=N/Nc3ccc(Br)cn3)C[C@H]1[C@@H]2C(=O)OC` and `CC[C@@H]1CN(C)[C@H]2Cc3c([nH]c4ccccc34)/C(=N/Nc3ccc(Br)cn3)C[C@H]1[C@@H]2C(=O)OC` are within 1.5-fold of each other in IC50: 39.9 µM for the first, 37.6 µM for the second.

Molecule `CC[C@@H]1CN(C)[C@H]2Cc3c([nH]c4ccccc34)/C(=N/O)C[C@H]1[C@@H]2C(=O)OC` has an IC50 of 85.4 µM.
